# Values joined by “and” are separate entries in the source; they are usually repeats but may differ in a detail not shown here. Equal values may be shown once.
# What was measured:
# D Clade [1] = assay: ELISA cross clade recognition by sera of immunized mice, D Clade; format: in vivo; details: day 42 test bleeding, individual mouse
# C Clade = assay: ELISA cross clade recognition by sera of immunized mice, C Clade; format: in vivo; details: for ELISA test antigen C Clade: day 42 test bleeding
# Experimental: (§1) Mice in groups (5-10 animals per group as designated) are immunized with the LEAPS constructs (25 μg/dose) of SEQ ID NO's:37, 38 and 39, in 0.2 mL emulsified 1:1 with adjuvant (Seppic's ISA-51 or Corixa's microfluidized MPL S/E) on days 0 and 14. Mice are evaluated by Delayed Type of Hypersensitivity (DTH) by inoculation on day 26 with 20 μl of a solution of saline or mH (SEQ ID NO:6) (25 μg in saline) in the left or right ear respectively. The DTH response is determined by measurement of the ear thickness 48 hours later and expressed as increase in ear thickness (mm) of experimental ear compared to that of the control ear. Individual animal sera are collected for measurement of antibody on day 28, 42, 63 and 77. Sera from individual animals and group pools are evaluated for specific anti-mH antibody, for total antibody, IgG1, IgG2a and IgG3 antibody isotype and cross clade titer at selected time points as indicated.
# (§2) The mouse sera for the ELISA was used at a dilution of 1:200. Again, clearly, the construct provides higher signals indicative of higher levels of the antibodies that recognized other clades besides the parental one (Clade B) of mH.
# (§3) A cross clade analysis for pools of day 42 test bleedings from the same groups as used in Table 3, were obtained and the results are shown in Table 4.
# [2] = tested on: modified HGP-30 (mH, SEQ ID NO:6); assay: Isotype analysis (ELISA) of anti-mH antibody in sera of immunized mice; format: in vivo; set-up: IgG1 / IgG2a / IgG2b / IgG3: unit not given here; details: for IgG1 / IgG2a / IgG2b / IgG3: ELISA signal, day 42 test bleeding; for Ig1, serial dilution 1:200 / Ig1, serial dilution 1:800 / Ig1, serial dilution 1:3200 / Ig1, serial dilution 1:12800 / Ig1, serial dilution 1:51200 / Ig1, serial dilution 1:204800 / Ig2a, serial dilution 1:200 / Ig2a, serial dilution 1:800 / Ig2a, serial dilution 1:3200 / Ig2a, serial dilution 1:12800 / Ig2a, serial dilution 1:51200 / Ig2a, serial dilution 1:204800 / Ig2b, serial dilution 1:200 / Ig2b, serial dilution 1:800 / Ig2b, serial dilution 1:3200 / Ig2b, serial dilution 1:12800 / Ig2b, serial dilution 1:51200 / Ig2b, serial dilution 1:204800 / Ig3, serial dilution 1:200 / Ig3, serial dilution 1:800 / Ig3, serial dilution 1:3200 / Ig3, serial dilution 1:12800 / Ig3, serial dilution 1:51200 / Ig3, serial dilution 1:204800: day 28 pool
# Experimental: as §1
# The results of an isotype analysis of day 42 test bleedings with G′-mH (SEQ ID NO:37), G-mH (SEQ ID NO:38), J-mH (SEQ ID NO:39), F-mH (SEQ ID NO:40) and F-HGP-30 (SEQ ID NO:41), are shown in Table 1.
# An isotype analysis for pools of day 28 test bleedings G-mH, G′-mH and m-HGP-30/KLH using either MPL S/E or ISA51 as adjuvant, are shown in Table 3.
# B Clade = assay: ELISA cross clade recognition by sera of immunized mice, B Clade; format: in vivo; details: for ELISA test antigen B Clade: day 42 test bleeding
# Experimental: as §1, §2, §3
# D Clade [3] = assay: ELISA cross clade recognition by sera of immunized mice, D Clade; format: in vivo; details: for ELISA test antigen D Clade: day 42 test bleeding, Group Average
# Experimental: as §1, §2, §3
# Peptide G = assay: Specificity analysis for the TCBL carrier, ELISA plates coated with Peptide G; format: in vivo, Mice; details: individual animal
# [4] = day 63 test bleeding, sera 1:200, individual mouse
# [5] = group without '(with MPL)' (ISA51)
substance,measurement,setting,value
"DGQ EEK AGV VST GLI GGG ATL YSV HQR IDV KDT KEA LEK IEE EQN KS (DGQEEKAGVVSTGLIGGGYLSGANLNL) [SEQ ID NO: 57, Peptide G′ linked by GGG spacer to modified HGP-30 (mH)]",ELISA test antigen D Clade,D Clade [1]; group (A),0.052 and 0.000 (2×) and 0.010 and 0.003 and 0.114
same,ELISA test antigen D Clade,D Clade [1]; group (B),0.087 and 0.095 and 0.185 and 1.799 and 1.727 and 0.637
same,ELISA test antigen C Clade,"C Clade; group (A), Group Average",0.712
same,ELISA test antigen C Clade,"C Clade; group (A), individual mouse",0.616 and 0.000 and 0.518 and 0.920 and 0.767 and 1.454
same,ELISA test antigen C Clade,"C Clade; group (B), Group Average",1.559
same,ELISA test antigen C Clade,"C Clade; group (B), individual mouse",2.575 and 0.837 and 1.711 and 2.254 and 0.911 and 1.070
same,ELISA signal on C Clade,C Clade; [4],1.454 and 0.127 and 0.427 and 0.073 and 1.592 and 0.651 and 1.365 and 1.139 and 0.008 and 1.191
same,IgG1,[2]; group Average,2.667
same,IgG2a,[2]; group Average,1.427
same,IgG2b,[2]; group Average,1.695
same,IgG3,[2]; group Average,1.562
same,IgG1,[2]; individual mouse,2.577 and 2.623 and 2.588 and 2.601 and 2.757 and 2.886 and 2.768 and 2.574 and 2.628 and 2.671
same,IgG2a,[2]; individual mouse,1.399 and 1.302 and 1.630 and 0.467 and 1.249 and 2.275 and 0.998 and 1.693 (2×) and 1.566
same,IgG2b,[2]; individual mouse,2.050 and 1.588 and 1.735 and 0.534 and 1.261 and 2.717 and 1.656 and 2.009 and 1.613 and 1.785
same,IgG3,[2]; individual mouse,1.853 and 1.268 and 1.856 and 1.229 and 2.186 and 1.921 and 1.276 and 2.181 and 0.672 and 1.183
same,"Ig1, serial dilution 1:200",[2]; [5],3.006
same,"Ig1, serial dilution 1:800",[2]; [5],2.441
same,"Ig1, serial dilution 1:3200",[2]; [5],1.755
same,"Ig1, serial dilution 1:12800",[2]; [5],1.069
same,"Ig1, serial dilution 1:51200",[2]; [5],0.367
same,"Ig1, serial dilution 1:204800",[2]; [5],0.114
same,"Ig2a, serial dilution 1:200",[2]; [5],0.729
same,"Ig2a, serial dilution 1:800",[2]; [5],0.218
same,"Ig2a, serial dilution 1:3200",[2]; [5],0.068
same,"Ig2a, serial dilution 1:12800",[2]; [5],0.025
same,"Ig2a, serial dilution 1:51200",[2]; [5],0.015
same,"Ig2a, serial dilution 1:204800",[2]; [5],0.008
same,"Ig2b, serial dilution 1:200",[2]; [5],1.420
same,"Ig2b, serial dilution 1:800",[2]; [5],0.505
same,"Ig2b, serial dilution 1:3200",[2]; [5],0.134
same,"Ig2b, serial dilution 1:12800",[2]; [5],0.054
same,"Ig2b, serial dilution 1:51200",[2]; [5],0.014
same,"Ig2b, serial dilution 1:204800",[2]; [5],0.000
same,"Ig3, serial dilution 1:200",[2]; [5],1.132
same,"Ig3, serial dilution 1:800",[2]; [5],0.358
same,"Ig3, serial dilution 1:3200",[2]; [5],0.092
same,"Ig3, serial dilution 1:12800",[2]; [5],0.020
same,"Ig3, serial dilution 1:51200",[2]; [5],0.004
same,"Ig3, serial dilution 1:204800",[2]; [5],0.000
same,"Ig1, serial dilution 1:200",[2]; with MPL,2.642
same,"Ig1, serial dilution 1:800",[2]; with MPL,1.638
same,"Ig1, serial dilution 1:3200",[2]; with MPL,0.652
same,"Ig1, serial dilution 1:12800",[2]; with MPL,0.279
same,"Ig1, serial dilution 1:51200",[2]; with MPL,0.091
same,"Ig1, serial dilution 1:204800",[2]; with MPL,0.014
same,"Ig2a, serial dilution 1:200",[2]; with MPL,1.961
same,"Ig2a, serial dilution 1:800",[2]; with MPL,0.899
same,"Ig2a, serial dilution 1:3200",[2]; with MPL,0.263
same,"Ig2a, serial dilution 1:12800",[2]; with MPL,0.081
same,"Ig2a, serial dilution 1:51200",[2]; with MPL,0.028
same,"Ig2a, serial dilution 1:204800",[2]; with MPL,0.005
same,"Ig2b, serial dilution 1:200",[2]; with MPL,1.872
same,"Ig2b, serial dilution 1:800",[2]; with MPL,0.881
same,"Ig2b, serial dilution 1:3200",[2]; with MPL,0.253
same,"Ig2b, serial dilution 1:12800",[2]; with MPL,0.104
same,"Ig2b, serial dilution 1:51200",[2]; with MPL,0.011
same,"Ig2b, serial dilution 1:204800",[2]; with MPL,0.006
same,"Ig3, serial dilution 1:200",[2]; with MPL,1.965
same,"Ig3, serial dilution 1:800",[2]; with MPL,0.805
same,"Ig3, serial dilution 1:3200",[2]; with MPL,0.215
same,"Ig3, serial dilution 1:12800",[2]; with MPL,0.045
same,"Ig3, serial dilution 1:51200",[2]; with MPL,0.005
same,"Ig3, serial dilution 1:204800",[2]; with MPL,0.000
same,Levels of TH1 preferred isotypes relative to TH2 isotype (IgG1),"[2]; day 42 test bleedings, Table 1, in words",significantly higher signals
same,ELISA test antigen B Clade,"B Clade; group (A), Group Average",0.346
same,ELISA test antigen B Clade,"B Clade; group (A), individual mouse",0.271 and 0.000 and 0.036 and 0.507 and 0.187 and 1.074
same,ELISA test antigen B Clade,"B Clade; group (B), Group Average",1.410
same,ELISA test antigen B Clade,"B Clade; group (B), individual mouse",2.348 and 0.496 and 1.799 and 1.228 and 2.244 and 0.349
same,ELISA signal on B Clade,B Clade; [4],1.667 and 0.160 and 0.099 and 0.236 and 1.547 and 0.470 and 1.138 and 0.994 and 0.000 and 0.505
same,ELISA test antigen D Clade,D Clade [3]; group (A),0.030
same,ELISA test antigen D Clade,D Clade [3]; group (B),0.755
same,ELISA signal on D Clade,D Clade [3]; [4],1.527 and 0.438 and 0.408 and 0.125 and 1.471 and 0.772 and 1.328 and 1.370 and 0.000 and 0.374
same,A 490 1:200 dilution on plates coated with Peptide G,"Peptide G; day 42, first set of groups (animals 4637-4648, 4674-4678)",0.083 A 490 and 0.054 A 490 and 0.097 A 490 and 0.038 A 490 and 0.087 A 490 and 0.121 A 490
same,A 490 1:200 dilution on plates coated with Peptide G,"Peptide G; day 42, second set of groups (animals 4662-4673, 4679-4683)",0.091 A 490 and 0.024 A 490 and 0.006 A 490 and 0.015 A 490 and 0.126 A 490 and 0.113 A 490
